Assay: xn = mol fraction of the nth substance listed

C1CCCCC1 + CCCCO
Conditions | viscosity [mPa·s]
298.15 K, 101 kPa, x1 = 0.1014 | 2.225
298.15 K, 101 kPa, x1 = 0.1996 | 1.945
298.15 K, 101 kPa, x1 = 0.2962 | 1.699
298.15 K, 101 kPa, x1 = 0.4016 | 1.468
298.15 K, 101 kPa, x1 = 0.5032 | 1.274
298.15 K, 101 kPa, x1 = 0.597 | 1.123
298.15 K, 101 kPa, x1 = 0.6908 | 1.02
298.15 K, 101 kPa, x1 = 0.7923 | 0.9371
298.15 K, 101 kPa, x1 = 0.8856 | 0.8954
298.15 K, 101 kPa, x2 = 0.0216 | 0.876
298.15 K, 101 kPa, x2 = 0.1208 | 0.903
298.15 K, 101 kPa, x2 = 0.155 | 0.921
298.15 K, 101 kPa, x2 = 0.1796 | 0.931
298.15 K, 101 kPa, x2 = 0.3673 | 1.09
298.15 K, 101 kPa, x2 = 0.532 | 1.357
298.15 K, 101 kPa, x2 = 0.7128 | 1.752
298.15 K, 101 kPa, x2 = 0.8385 | 2.07
303.15 K, 101 kPa, x2 = 0.6491 | 1.196
303.15 K, 101.33 kPa, x2 = 0.2111 | 0.9317
303.15 K, 101.33 kPa, x2 = 0.298 | 0.9971
303.15 K, 101.33 kPa, x2 = 0.4038 | 1.095
303.15 K, 101.33 kPa, x2 = 0.489 | 1.187
303.15 K, 101.33 kPa, x2 = 0.8096 | 1.719
303.15 K, 101.33 kPa, x2 = 0.8981 | 1.941
308.15 K, 101 kPa, x2 = 0.0216 | 0.745
308.15 K, 101 kPa, x2 = 0.0714 | 0.754
308.15 K, 101 kPa, x2 = 0.1208 | 0.765
308.15 K, 101 kPa, x2 = 0.155 | 0.779
308.15 K, 101 kPa, x2 = 0.1796 | 0.787
308.15 K, 101 kPa, x2 = 0.3673 | 0.898
308.15 K, 101 kPa, x2 = 0.532 | 1.089
308.15 K, 101 kPa, x2 = 0.6491 | 1.083
308.15 K, 101 kPa, x2 = 0.7128 | 1.387
308.15 K, 101 kPa, x2 = 0.8385 | 1.627
313.15 K, 101 kPa, x1 = 0.1014 | 1.547
313.15 K, 101 kPa, x1 = 0.1996 | 1.363
313.15 K, 101 kPa, x1 = 0.2962 | 1.203
313.15 K, 101 kPa, x1 = 0.4016 | 1.054
313.15 K, 101 kPa, x1 = 0.5032 | 0.934
313.15 K, 101 kPa, x1 = 0.597 | 0.8408
313.15 K, 101 kPa, x1 = 0.6908 | 0.7773
313.15 K, 101 kPa, x1 = 0.7923 | 0.7265
313.15 K, 101 kPa, x1 = 0.8856 | 0.6993
313.15 K, 101 kPa, x2 = 0.6491 | 0.9869
318.15 K, 101 kPa, x2 = 0.0216 | 0.643
318.15 K, 101 kPa, x2 = 0.0714 | 0.645
318.15 K, 101 kPa, x2 = 0.1208 | 0.652
318.15 K, 101 kPa, x2 = 0.155 | 0.664
318.15 K, 101 kPa, x2 = 0.1796 | 0.672
318.15 K, 101 kPa, x2 = 0.3673 | 0.754
318.15 K, 101 kPa, x2 = 0.532 | 0.895
318.15 K, 101 kPa, x2 = 0.7128 | 1.114
318.15 K, 101 kPa, x2 = 0.8385 | 1.298

CCC(C)=O + CCCCO
viscosity [mPa·s]
Conditions | 298.15 K | 308.15 K | 318.15 K
100 kPa, x1 = 0.0997 | – | 1.465 | –
100 kPa, x1 = 0.1999 | – | 1.115 | –
101.3 kPa, x2 = 0.0987 | 0.428 | 0.385 | 0.349
101.3 kPa, x2 = 0.1988 | 0.476 | 0.425 | 0.382
101.3 kPa, x2 = 0.3004 | 0.538 | 0.476 | 0.425
101.3 kPa, x2 = 0.3991 | 0.616 | 0.54 | 0.478
101.3 kPa, x2 = 0.4973 | 0.722 | 0.626 | 0.547
101.3 kPa, x2 = 0.5972 | 0.861 | 0.737 | 0.636
101.3 kPa, x2 = 0.6979 | 1.06 | 0.891 | –
101.3 kPa, x2 = 0.7995 | 1.361 | 1.121 | 0.931
101.3 kPa, x2 = 0.9028 | – | 1.458 | 1.188

CCCCCCCC(=O)OCC + CCCCO
viscosity [mPa·s], 100 kPa
Conditions | x2 = 0.1124 | x2 = 0.2221 | x2 = 0.3 | x2 = 0.4 | x2 = 0.4999 | x2 = 0.5999 | x2 = 0.727 | x2 = 0.8203 | x2 = 0.9108
293.15 K | 1.508 | 1.507 | 1.521 | 1.548 | 1.587 | 1.651 | 1.795 | 2.014 | 2.351
298.15 K | 1.378 | 1.379 | 1.378 | 1.407 | 1.436 | 1.488 | 1.61 | 1.789 | 2.071
303.15 K | 1.264 | 1.261 | 1.263 | 1.295 | 1.307 | 1.36 | 1.468 | 1.611 | 1.842
308.15 K | 1.162 | 1.161 | 1.164 | 1.177 | 1.193 | 1.233 | 1.331 | 1.458 | 1.646
313.15 K | 1.069 | 1.062 | 1.06 | 1.07 | 1.09 | 1.122 | 1.194 | 1.307 | 1.467
318.15 K | 0.999 | 0.988 | 0.99 | 0.993 | 1.013 | 1.039 | 1.106 | 1.193 | 1.327
323.15 K | 0.932 | 0.927 | 0.92 | 0.925 | 0.94 | 0.958 | 1.011 | 1.091 | 1.208

COC(C)=O + CCCCO
298.15 K, 101.33 kPa
Conditions | viscosity [mPa·s]
x1 = 0.0786 | 1.953
x1 = 0.144 | 1.566
x1 = 0.2105 | 1.28
x1 = 0.2986 | 1.019
x1 = 0.4151 | 0.791
x1 = 0.4971 | 0.677
x1 = 0.5919 | 0.576
x1 = 0.6406 | 0.534
x1 = 0.7116 | 0.484
x1 = 0.7972 | 0.44
x1 = 0.9034 | 0.402

COc1ccccc1N + CCCCO
viscosity [mPa·s], 101 kPa
Conditions | x1 = 0.1085 | x1 = 0.1811 | x1 = 0.2605 | x1 = 0.3474 | x1 = 0.4771 | x1 = 0.5867 | x1 = 0.6665 | x1 = 0.7526 | x1 = 0.8949
303.15 K | 2.547 | 2.719 | 2.91 | 3.123 | 3.448 | 3.729 | 3.943 | 4.18 | 4.597
308.15 K | 2.267 | 2.431 | 2.611 | 2.813 | 3.12 | 3.388 | 3.59 | 3.815 | 4.205
313.15 K | 2.036 | 2.194 | 2.365 | 2.554 | 2.846 | 3.103 | 3.297 | 3.516 | 3.895
318.15 K | 1.83 | 1.981 | 2.143 | 2.322 | 2.598 | 2.847 | 3.036 | 3.247 | 3.609

COc1ccccc1N + CCCCOCCO
303.15 K, 101 kPa
Conditions | viscosity [mPa·s]
x1 = 0.115 | 3.21
x1 = 0.2262 | 3.538
x1 = 0.3338 | 3.847
x1 = 0.438 | 4.116
x1 = 0.539 | 4.334
x1 = 0.6369 | 4.494
x1 = 0.7318 | 4.629
x1 = 0.8238 | 4.741
x1 = 0.9132 | 4.839

CCC(C)=O + CCCCn1cc[n+](C)c1.F[B-](F)(F)F
298.15 K, 101.33 kPa
Conditions | viscosity [mPa·s]
x2 = 0.7996 | 42.25
x2 = 0.8995 | 67.85

C1CCCCC1 + CCCO
Conditions | viscosity [mPa·s]
298.15 K, 100 kPa, x2 = 0.0547 | 0.8988
298.15 K, 100 kPa, x2 = 0.1077 | 0.9091
298.15 K, 100 kPa, x2 = 0.1968 | 0.9202
298.15 K, 100 kPa, x2 = 0.3164 | 0.9358
298.15 K, 100 kPa, x2 = 0.4278 | 1.013
298.15 K, 100 kPa, x2 = 0.6293 | 1.243
298.15 K, 100 kPa, x2 = 0.8064 | 1.502
298.15 K, 100 kPa, x2 = 0.8873 | 1.626
298.15 K, 101 kPa, x2 = 0.0166 | 0.873
298.15 K, 101 kPa, x2 = 0.0647 | 0.865
298.15 K, 101 kPa, x2 = 0.1219 | 0.867
298.15 K, 101 kPa, x2 = 0.2231 | 0.889
298.15 K, 101 kPa, x2 = 0.3207 | 0.946
298.15 K, 101 kPa, x2 = 0.3805 | 0.994
298.15 K, 101 kPa, x2 = 0.7039 | 1.371
298.15 K, 101 kPa, x2 = 0.8023 | 1.529
303.15 K, 101 kPa, x2 = 0.6491 | 1.1
303.15 K, 101.33 kPa, x2 = 0.109 | 0.8411
303.15 K, 101.33 kPa, x2 = 0.208 | 0.8728
303.15 K, 101.33 kPa, x2 = 0.3385 | 0.9327
303.15 K, 101.33 kPa, x2 = 0.4215 | 0.9852
303.15 K, 101.33 kPa, x2 = 0.6115 | 1.141
303.15 K, 101.33 kPa, x2 = 0.708 | 1.237
303.15 K, 101.33 kPa, x2 = 0.8094 | 1.37
308.15 K, 100 kPa, x2 = 0.0547 | 0.718
308.15 K, 100 kPa, x2 = 0.1077 | 0.7248
308.15 K, 100 kPa, x2 = 0.1968 | 0.7355
308.15 K, 100 kPa, x2 = 0.3164 | 0.7941
308.15 K, 100 kPa, x2 = 0.4278 | 0.8335
308.15 K, 100 kPa, x2 = 0.5319 | 0.8971
308.15 K, 100 kPa, x2 = 0.6293 | 0.9922
308.15 K, 100 kPa, x2 = 0.7206 | 1.095
308.15 K, 100 kPa, x2 = 0.8064 | 1.203
308.15 K, 100 kPa, x2 = 0.8873 | 1.317
308.15 K, 100 kPa, x2 = 0.9635 | 1.491
308.15 K, 101 kPa, x2 = 0.0166 | 0.736
308.15 K, 101 kPa, x2 = 0.0647 | 0.73
308.15 K, 101 kPa, x2 = 0.1219 | 0.732
308.15 K, 101 kPa, x2 = 0.2231 | 0.746
308.15 K, 101 kPa, x2 = 0.3207 | 0.782
308.15 K, 101 kPa, x2 = 0.3805 | 0.818
308.15 K, 101 kPa, x2 = 0.4203 | 0.845
308.15 K, 101 kPa, x2 = 0.6491 | 1.022
308.15 K, 101 kPa, x2 = 0.7039 | 1.099
308.15 K, 101 kPa, x2 = 0.8023 | 1.218
313.15 K, 101 kPa, x2 = 0.6491 | 0.9392
318.15 K, 101 kPa, x2 = 0.0166 | 0.634
318.15 K, 101 kPa, x2 = 0.0647 | 0.626
318.15 K, 101 kPa, x2 = 0.1219 | 0.624
318.15 K, 101 kPa, x2 = 0.2231 | 0.634
318.15 K, 101 kPa, x2 = 0.3207 | 0.66
318.15 K, 101 kPa, x2 = 0.3805 | 0.683
318.15 K, 101 kPa, x2 = 0.4203 | 0.706
318.15 K, 101 kPa, x2 = 0.7039 | 0.896
318.15 K, 101 kPa, x2 = 0.8023 | 0.992
